According to ChEMBL document CHEMBL1152031, “Substituted N,N-diphenyl ureas as potent inhibitors of acyl-CoA:Cholesterol acyltransferase (ACAT)” (Bioorg Med Chem Lett, 1993):

Key:
O-acyltransferase = O-acyltransferase (Oryctolagus cuniculus, UniProt G1SFD9); test: In vitro inhibition of intestinal Acyl coenzyme A:cholesterol acyltransferase in cholesterol-fed rabbits.
Rattus norvegicus = test: Tested in vivo for the ability to lower the total plasma cholesterol (TC) in an chronic peanut oil/cholesterol/cholic Acid (APCC) model at the dose of 30 mg/kg; format: functional

O-acyltransferase, sequence (G1SFD9 1-524): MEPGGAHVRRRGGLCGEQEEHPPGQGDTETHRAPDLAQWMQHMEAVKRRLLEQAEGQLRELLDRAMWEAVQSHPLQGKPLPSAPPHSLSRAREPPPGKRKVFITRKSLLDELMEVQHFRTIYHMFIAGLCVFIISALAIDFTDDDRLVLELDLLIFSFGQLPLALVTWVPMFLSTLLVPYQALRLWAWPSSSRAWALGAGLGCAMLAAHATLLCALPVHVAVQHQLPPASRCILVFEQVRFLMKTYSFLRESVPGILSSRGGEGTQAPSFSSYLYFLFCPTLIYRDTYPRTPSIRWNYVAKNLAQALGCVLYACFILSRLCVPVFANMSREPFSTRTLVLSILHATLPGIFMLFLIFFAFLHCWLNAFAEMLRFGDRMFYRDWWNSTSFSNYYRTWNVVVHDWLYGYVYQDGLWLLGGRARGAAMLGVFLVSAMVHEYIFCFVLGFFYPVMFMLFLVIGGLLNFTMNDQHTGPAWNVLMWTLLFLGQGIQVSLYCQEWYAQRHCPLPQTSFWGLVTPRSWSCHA

SMILES	IC50 (O-acyltransferase)	Delta TC (Rattus norvegicus)
CCCCCCCCCCCCCCc1ccc(NC(=O)Nc2c(C(C)C)cccc2C(C)C)cc1	500 nM	-25%
CCc1ccc(NC(=O)Nc2c(C(C)C)cccc2C(C)C)cc1	100 nM	–
Cc1ccc(NC(=O)Nc2c(C(C)C)cccc2C(C)C)cc1	250 nM	–
CCCc1ccc(NC(=O)Nc2c(C(C)C)cccc2C(C)C)cc1	38 nM	–
CC(C)c1cccc(C(C)C)c1NC(=O)Nc1ccc(C(C)(C)C)cc1	168 nM	-10%
CC(C)c1ccc(NC(=O)Nc2c(C(C)C)cccc2C(C)C)cc1	66 nM	–
CCCCCCCN(Cc1ccc(CC(C)(C)C)cc1)C(=O)Nc1ccc(F)cc1F [CL-277082]	–	-54%

More lines, in order of falling IC50 (O-acyltransferase), values ahead:

IC50 (O-acyltransferase)	SMILES	Delta TC (Rattus norvegicus)
32 nM	CCCCCc1ccc(NC(=O)Nc2c(C(C)C)cccc2C(C)C)cc1	–
29 nM	CCCCc1ccc(NC(=O)Nc2c(C(C)C)cccc2C(C)C)cc1	-12%
26 nM	CCCCCCc1ccc(NC(=O)Nc2c(C(C)C)cccc2C(C)C)cc1	-18%
19 nM	CCCCCCCc1ccc(NC(=O)Nc2c(C(C)C)cccc2C(C)C)cc1	-21%
15 nM	CCCCCCCCCCCCc1ccc(NC(=O)Nc2c(C(C)C)cccc2C(C)C)cc1	-47%
13 nM	CCCCCCCCCCc1ccc(NC(=O)Nc2c(C(C)C)cccc2C(C)C)cc1	-25%
11 nM	CCCCCCCCCCCCCc1ccc(NC(=O)Nc2c(C(C)C)cccc2C(C)C)cc1	-70%
11 nM	CCCCCCCCc1ccc(NC(=O)Nc2c(C(C)C)cccc2C(C)C)cc1	-29%
9 nM	CCCCCCCCCCCc1ccc(NC(=O)Nc2c(C(C)C)cccc2C(C)C)cc1	-29%
9 nM	CCCCCCCCCc1ccc(NC(=O)Nc2c(C(C)C)cccc2C(C)C)cc1	-8%
